# Results reported in patent US20260207759A1, “COMPOSITION OF CD40-BINDING MOLECULE AND PHARMACEUTICAL USE THEREOF” (SUZHOU SUNCADIA BIOPHARMACEUTICALS CO., LTD., priority 2022, published 2026).
# Assays:
# [1] = tested on: human CD40 transgenic mice; assay: Mouse skin graft rejection model (anti-CD40-ADC); format: in vivo; settings: 10 mpk ip, budesonide 0.12 mg/kg QD, dexamethasone 20 mpk QD
# Description: Male Balb/c mice, 6 weeks old, were purchased from the Laboratory Animal Management Department, Shanghai Institute of Planned Parenthood Research.
# (§1) On day −2 of the experiment, the mice were intraperitoneally injected with the CD40 antagonistic antibody, anti-CD40-ADC, or glucocorticoid. On day 0 of the experiment, donor Balb/c mice and C57BL6/J mice were anesthetized with 4% chloral hydrate. The tails of the donor mice were removed, and full circles of skin, 1 cm in length, were isolated from the tails. The hair on the acceptor mice's back was removed, and an incision was made along the skin layer. An equal area of skin was removed while preserving the back fat and connective tissue. The donor skin was placed on the acceptor mice's incision site, and the incision was closed with glue. The mice were then placed back in cages to recover.
# The mice were dosed according to the administration regimens in Table 27. After 7 days of recovery, the mouse skin survival was observed daily and rejection scores were recorded.
# [2] = tested on: human CD40 transgenic mice; assay: Mouse skin graft rejection model (antibodies, tacrolimus combination); format: in vivo; settings: FK506 3 mpk, alone or combined
# Description: Male Balb/c mice, 6 weeks old, were purchased from the Laboratory Animal Management Department, Shanghai Institute of Planned Parenthood Research. Housing environment: SPF; certification number: 20180006023393.
# as §1, with “On day-2” for “On day −2”, “with tacrolimus FK506 or” for “with the”, “antagonistic antibodies.” for “antagonistic antibody, anti-CD40-ADC, or glucocorticoid.”
# The mice were dosed according to the administration regimens in Table 16. After 7 days of recovery, the mouse skin survival was observed daily and rejection scores were recorded.
SMILES,"Skin graft survival rate (%), 10 days [1] [%]","Skin graft survival rate (%), 15 days [1] [%]","Skin graft survival rate (%), 20 days [1] [%]","Skin graft score, 10 days ([1]; score 3 to 0)","Skin graft score, 15 days ([1]; score 3 to 0)","Skin graft score, 20 days ([1]; score 3 to 0)",Day-15 skin graft survival rate (%) ([2]; Table 20: antibody 10 mpk),"Skin graft score, 8 days ([2]; Table 22: 2F12-L4H2 10 mpk)","Skin graft score, 10 days ([2]; Table 22: 2F12-L4H2 10 mpk)","Skin graft score, 15 days ([2]; Table 22: 2F12-L4H2 10 mpk)","Skin graft score, 20 days ([2]; Table 22: 2F12-L4H2 10 mpk)"
C[C@@H]1C[C@H]2[C@@H]3CCC4=CC(=O)C=C[C@]4(C)[C@@]3(F)[C@@H](O)C[C@]2(C)[C@@]1(O)C(=O)CO [Dexamethasone],88.9,88.9,66.7,2.33,2,1.56,–,–,–,–,–
"C=CC[C@@H]1/C=C(\C)C[C@H](C)C[C@H](OC)[C@H]2O[C@@](O)(C(=O)C(=O)N3CCCC[C@H]3C(=O)O[C@H](/C(C)=C/[C@@H]3CC[C@@H](O)[C@H](OC)C3)[C@H](C)[C@@H](O)CC1=O)[C@H](C)C[C@@H]2OC [FK506, tacrolimus]",–,–,–,–,–,–,16.7,2.5,1.5,0.5,0
